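Compound exposure: 48 hours, 5 concentrations, 96-well plates. TGI: concentration producing complete growth inhibition.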
Legend:
Assay in all cases: inhibition of tumour cell growth, NCI panel, 48 h
MALME-3M melanoma = system: MALME-3M melanoma
HOP-92 NSCLC = system: HOP-92 NSCLC
SF-295 CNS = system: SF-295 CNS
EKVX NSCLC = system: EKVX NSCLC
MDA-MB-435 = system: MDA-MB-435
COLO 205 colon = system: COLO 205 colon
U251 CNS = system: U251 CNS
SR leukemia = system: SR leukemia
RPMI-8226 leukemia = system: RPMI-8226 leukemia
TK-10 renal = system: TK-10 renal
HCT-116 colon = system: HCT-116 colon
CAKI-1 renal = system: CAKI-1 renal
MCF7 breast = system: MCF7 breast
SK-MEL-5 melanoma = system: SK-MEL-5 melanoma
SN12C renal = system: SN12C renal
CCRF-CEM leukemia = system: CCRF-CEM leukemia
SNB-75 CNS = system: SNB-75 CNS
SNB-19 CNS = system: SNB-19 CNS
NCI-H522 lung = system: NCI-H522 lung
OVCAR-3 ovarian = system: OVCAR-3 ovarian
HS 578T breast = system: HS 578T breast
ACHN renal = system: ACHN renal
A498 renal = system: A498 renal
DU-145 prostate = system: DU-145 prostate
OVCAR-8 ovarian = system: OVCAR-8 ovarian
RXF 393 renal = system: RXF 393 renal
MOLT-4 leukemia = system: MOLT-4 leukemia
HCT-15 colon = system: HCT-15 colon
NCI-H23 lung = system: NCI-H23 lung
NCI/ADR-RES ovarian = system: NCI/ADR-RES ovarian
OVCAR-4 ovarian = system: OVCAR-4 ovarian
A549 NSCLC = system: A549 NSCLC
NCI-H460 lung = system: NCI-H460 lung
UO-31 renal = system: UO-31 renal
HL-60(TB) leukemia = system: HL-60(TB) leukemia
SK-OV-3 ovarian = system: SK-OV-3 ovarian
UACC-257 melanoma = system: UACC-257 melanoma
786-0 renal = system: 786-0 renal
M14 melanoma = system: M14 melanoma
HT29 colon = system: HT29 colon
HCC-2998 colon = system: HCC-2998 colon
NCI-H226 lung = system: NCI-H226 lung
SF-268 CNS = system: SF-268 CNS
SF-539 CNS = system: SF-539 CNS
MDA-MB-231 breast = system: MDA-MB-231 breast
LOX IMVI melanoma = system: LOX IMVI melanoma
SK-MEL-2 melanoma = system: SK-MEL-2 melanoma
KM12 colon = system: KM12 colon
SW-620 colon = system: SW-620 colon
SK-MEL-28 melanoma = system: SK-MEL-28 melanoma
T-47D breast = system: T-47D breast
UACC-62 melanoma = system: UACC-62 melanoma
IGROV1 ovarian = system: IGROV1 ovarian
OVCAR-5 ovarian = system: OVCAR-5 ovarian
K-562 leukemia = system: K-562 leukemia
PC-3 prostate = system: PC-3 prostate
HOP-62 NSCLC = system: HOP-62 NSCLC

SMILES: O=C(CSCC(=O)N/N=C\c1ccc(O)c(O)c1O)N/N=C\c1ccc(O)c(O)c1O
- TGI (MALME-3M melanoma): 52.3 µM
- TGI (HOP-92 NSCLC): > 100 µM
- TGI (SF-295 CNS): 4.94 µM
- TGI (EKVX NSCLC): 50.4 µM
- TGI (MDA-MB-435): 3.59 µM
- TGI (COLO 205 colon): > 100 µM
- TGI (U251 CNS): 19.2 µM
- TGI (SR leukemia): 8.18 µM
- TGI (RPMI-8226 leukemia): 6.86 µM
- TGI (TK-10 renal): 42 µM
- TGI (HCT-116 colon): 13.4 µM
- TGI (CAKI-1 renal): 37.1 µM
- TGI (MCF7 breast): 57.4 µM
- TGI (SK-MEL-5 melanoma): 36.3 µM
- TGI (SN12C renal): 59 µM
- TGI (CCRF-CEM leukemia): 4.75 µM
- TGI (SNB-75 CNS): 21.2 µM
- TGI (SNB-19 CNS): > 100 µM
- TGI (NCI-H522 lung): 44.4 µM
- TGI (OVCAR-3 ovarian): 17.6 µM
- TGI (HS 578T breast): 80.8 µM
- TGI (ACHN renal): 22 µM
- TGI (A498 renal): > 100 µM
- TGI (DU-145 prostate): 29.1 µM
- TGI (OVCAR-8 ovarian): > 100 µM
- TGI (RXF 393 renal): > 100 µM
- TGI (MOLT-4 leukemia): 11.9 µM
- TGI (HCT-15 colon): 29.1 µM
- TGI (NCI-H23 lung): 3.65 µM
- TGI (NCI/ADR-RES ovarian): 3.16 µM
- TGI (OVCAR-4 ovarian): 9.22 µM
- TGI (A549 NSCLC): 53.7 µM
- TGI (NCI-H460 lung): 56.3 µM
- TGI (UO-31 renal): 34.7 µM
- TGI (HL-60(TB) leukemia): 49.9 µM
- TGI (SK-OV-3 ovarian): > 100 µM
- TGI (UACC-257 melanoma): 50 µM
- TGI (786-0 renal): 4.56 µM
- TGI (M14 melanoma): 21.5 µM
- TGI (HT29 colon): 54.9 µM
- TGI (HCC-2998 colon): 46.1 µM
- TGI (NCI-H226 lung): 53.1 µM
- TGI (SF-268 CNS): > 100 µM
- TGI (SF-539 CNS): 37.9 µM
- TGI (MDA-MB-231 breast): 78.1 µM
- TGI (LOX IMVI melanoma): 4.76 µM
- TGI (SK-MEL-2 melanoma): 84.5 µM
- TGI (KM12 colon): 37.1 µM
- TGI (SW-620 colon): 12.8 µM
- TGI (SK-MEL-28 melanoma): 44.2 µM
- TGI (T-47D breast): 76.1 µM
- TGI (UACC-62 melanoma): 41.8 µM
- TGI (IGROV1 ovarian): 42.2 µM

SMILES: COc1ccccc1/C=C\C(=O)C1COCN1 (stereo unspecified)
- TGI (MALME-3M melanoma): 45.7 µM
- TGI (SF-295 CNS): 50.8 µM
- TGI (EKVX NSCLC): 42.6 µM
- TGI (MDA-MB-435): 26.4 µM
- TGI (COLO 205 colon): 33.2 µM
- TGI (U251 CNS): 28.1 µM
- TGI (RPMI-8226 leukemia): 7.53 µM
- TGI (TK-10 renal): 50.8 µM
- TGI (OVCAR-5 ovarian): 67.4 µM
- TGI (HCT-116 colon): > 100 µM
- TGI (CAKI-1 renal): 42.2 µM
- TGI (MCF7 breast): 36.8 µM
- TGI (SK-MEL-5 melanoma): 25.1 µM
- TGI (SN12C renal): 35.1 µM
- TGI (CCRF-CEM leukemia): > 100 µM
- TGI (SNB-75 CNS): 41.3 µM
- TGI (SNB-19 CNS): 33.9 µM
- TGI (NCI-H522 lung): 36.1 µM
- TGI (OVCAR-3 ovarian): 34.2 µM
- TGI (HS 578T breast): 50.9 µM
- TGI (ACHN renal): 26.3 µM
- TGI (DU-145 prostate): 35.6 µM
- TGI (OVCAR-8 ovarian): 30.6 µM
- TGI (RXF 393 renal): 81.8 µM
- TGI (MOLT-4 leukemia): > 100 µM
- TGI (HCT-15 colon): 35.8 µM
- TGI (NCI-H23 lung): > 100 µM
- TGI (NCI/ADR-RES ovarian): 52.3 µM
- TGI (OVCAR-4 ovarian): 53.2 µM
- TGI (A549 NSCLC): 48.8 µM
- TGI (NCI-H460 lung): > 100 µM
- TGI (UO-31 renal): 44 µM
- TGI (HL-60(TB) leukemia): > 100 µM
- TGI (SK-OV-3 ovarian): 30.1 µM
- TGI (UACC-257 melanoma): 34 µM
- TGI (K-562 leukemia): > 100 µM
- TGI (786-0 renal): 75.5 µM
- TGI (M14 melanoma): > 100 µM
- TGI (HT29 colon): 30.6 µM
- TGI (NCI-H226 lung): 39.7 µM
- TGI (PC-3 prostate): 29.1 µM
- TGI (SF-268 CNS): 64.4 µM
- TGI (SF-539 CNS): 38.5 µM
- TGI (MDA-MB-231 breast): 38.8 µM
- TGI (LOX IMVI melanoma): 38.1 µM
- TGI (SK-MEL-2 melanoma): 56.7 µM
- TGI (KM12 colon): 24.6 µM
- TGI (HOP-62 NSCLC): 57.4 µM
- TGI (SW-620 colon): 19.4 µM
- TGI (SK-MEL-28 melanoma): 36.6 µM
- TGI (T-47D breast): 20.7 µM
- TGI (UACC-62 melanoma): 31.9 µM
- TGI (IGROV1 ovarian): 64.6 µM

— PubChem BioAssay (NCI)
